Publication PMC5847527, “Identification of a novel 2-oxindole fluorinated derivative as in vivo antitumor agent for prostate cancer acting via AMPK activation” (Scientific Reports, 2018)

Key:
AMPK = molecular target: T1, AMPK (Homo sapiens, UniProt Q13131); assay: AMPK and ACC phosphorylation by Western blot in PC-3 cells; assay type: cell-based; conditions: 25 µM, 1 hour
T1 construct: endogenous in cells; host or cells: PC-3, DU145, LNCaP
Description: To investigate the effect of the compounds on AMPK activity at cellular level, compounds 8a-c and 9a-b were selected to perform AMPK phosphorylation assays in human prostate cancer cell lines. We use the PC-3 cell line as it is androgen-resistant and represents the advanced and aggressive stage of prostate cancer. […] AMPK inhibits lipogenic pathway through phosphorylation of its well-known substrate acetyl-CoA carboxylase (ACC). To confirm the modulation of AMPK activity in prostate cells by the compounds, we determined levels of phosphorylated ACC in 2-oxindole fluorinated derivatives-treated cells. […] It is worthy to note that the highest ACC phosphorylation was obtained with compound 8c denoting a powerful activity of this compound in PC-3 cells.
Figure 2 Effect of 2-oxindole fluorinated derivatives on AMPK activity in prostate cancer cells. (A) PC-3, DU145 and LNCaP cells were treated with 25 µM of the selected 2-oxindole fluorinated derivatives for 1 hour. Levels of the phosphorylated AMPK (pAMPK), phosphorylated ACC (pACC) and their total forms were determined by Western blot. Upper panel, a representative Western blot of three different experiments. β-tubulin (β-Tub) serves as a loading control. […] Lower panels, densitometric analyses of bands represented as the mean of the ratio pAMPK/AMPK or pACC/ACC ± SD of three different experiments. *p < 0.05 compared with the controls by one-way ANOVA followed by Fisher’s LSD test; ^#p < 0.05 compared with 2-oxindole fluorinated derivates or with the AMPK activators AMP or A769662 by one-way ANOVA followed by Tukey test.
Human prostate cancer epithelial PC-3, DU145 and LNCaP and human prostate normal RWPE-1 cells were purchased from American Type Culture Collection (ATCC CRL-1435 CRL-1740 and CRL 11609 respectively) (Rockville, MD, USA). The human prostate normal PNT2 cell line was purchased to ECACC (European Collection of Cell cultures, Salisbury, SP4 0JG, UK). Cells were routinely grown in RPMI 1640 medium supplemented with 100 IU/ml penicillin G sodium, 100 µg/ml streptomycin sulfate, 0.25 µg/ml amphotericin B (Invitrogen, Paisley, UK) and 10% fetal calf serum. Cells were used at passages between 10–20. For treatment experiments, cells were plated and grown over night, the medium was then replaced with serum-free RPMI 1640 for 24 hours and then incubated with different doses of the compounds for the indicated times.
Cells were lysed in Lysis buffer (50 mM Tris pH 7.4, 0.8 M NaCl, 5 mM MgCl2, 0.1% Triton X-100) containing Protease Inhibitor and Phosphatase inhibitor Cocktails (Roche, Basel, Switzerland). Protein concentrations were measured by BioRad™ protein assay kit (Richmond, CA, USA). Equal amount of protein (20 μg) from each sample was separated on 8% SDS–PAGE gels and transferred to PVDF membranes (BioRad). The membranes were blocked with blocking buffer (1× TBS, 0.1% Tween 20 with 5% w/v fat-free dry milk), washed and incubated with primary antibodies at 4 °C for 12 h. The membranes were subsequently washed with TBS-T (1× TBS and 0.1% Tween 20) and incubated with horseradish peroxidase-conjugated anti-mouse or anti-rabbit IgG antibodies (Sigma, St Louis, MO, USA) at room temperature for 1 h. The immune complex was visualized with an ECL system (Cell Signaling Technology). Films were analyzed by densitometry. The anti-pAMPKα1-thr172, pACC-ser79, pP53, P21, pRaptor and the antibodies against the corresponding total forms were obtained from Cell Signaling Technology (Danvers, MA, USA). The anti-caspase 3 and anti-procaspase 3 were from Santa Cruz Biotechnology (Dallas, Texas, USA). The anti-HIF1A was from Novus Biologicals LLC (Littleton, CO, USA). The anti-Cyclin D1 antibody was obtained from ThermoFisher (Alcobendas, Madrid, Spain). All the other chemicals were obtained from Sigma (St. Louis, MO, USA).

[1] = Tolerability in PC-3 xenograft mice (weight, serum parameters, liver); assay type: in vivo; conditions: 5 mg/Kg daily, 15 days
Description: To validate the therapeutic value of the compound 8c against castration-resistant prostate cancer a murine xenograft model was employed. Due to the potent effect of compound 8c on the aggressive PC-3 cell line and in order to avoid unnecessary wasting of animals according to the 3 Rs guidelines (reduction, replacement, refinement) for the use of animals in research, we only use PC-3 cells for the in vivo studies. PC-3 tumors were induced in nude mice by subcutaneous injection of cells in the right flank of the mouse. When tumors reached a 70 mm^3 volume, mice were daily treated with 5 mg/Kg of compound 8c. In vehicle-treated mice, an increase in tumor growth volume was observed during the course of the study and at the end of experimentation (Fig. 8A).
Male immunodeficient nude-Foxn1 (nu/nu) mice (Envigo RMS, Barcelona, Spain), 4 to 6 week old, were used for all xenograft studies. […] Tumors were measured with external calipers and volume was calculated by the modified ellipsoidal formula as volume = length × (width)^2 × 0.52 mm^3 [52],[53]. At the end of the study, the mice were sacrificed by placing them in a CO2 gas-filled chamber, and the excised tumors were recovered and homogenized in lysis buffer for protein quantification and Western blotting. […]

T1 sequence (Q13131 whole entry): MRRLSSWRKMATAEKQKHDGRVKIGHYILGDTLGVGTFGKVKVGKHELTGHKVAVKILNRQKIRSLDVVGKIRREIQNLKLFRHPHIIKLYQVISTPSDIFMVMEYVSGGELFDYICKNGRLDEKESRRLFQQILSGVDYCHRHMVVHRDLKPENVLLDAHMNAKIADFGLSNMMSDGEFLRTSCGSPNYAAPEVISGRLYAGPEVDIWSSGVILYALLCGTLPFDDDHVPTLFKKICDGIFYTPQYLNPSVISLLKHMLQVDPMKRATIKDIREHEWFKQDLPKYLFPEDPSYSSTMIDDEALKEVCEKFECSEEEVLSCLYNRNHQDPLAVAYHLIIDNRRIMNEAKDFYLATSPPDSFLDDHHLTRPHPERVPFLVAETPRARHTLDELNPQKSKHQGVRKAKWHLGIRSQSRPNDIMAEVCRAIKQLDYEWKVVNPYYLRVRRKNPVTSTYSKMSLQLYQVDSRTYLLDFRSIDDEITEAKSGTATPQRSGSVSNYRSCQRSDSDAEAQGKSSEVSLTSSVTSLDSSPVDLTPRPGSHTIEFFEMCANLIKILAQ
T1 sequence (Q9Y478 2-270 partner limits assumed): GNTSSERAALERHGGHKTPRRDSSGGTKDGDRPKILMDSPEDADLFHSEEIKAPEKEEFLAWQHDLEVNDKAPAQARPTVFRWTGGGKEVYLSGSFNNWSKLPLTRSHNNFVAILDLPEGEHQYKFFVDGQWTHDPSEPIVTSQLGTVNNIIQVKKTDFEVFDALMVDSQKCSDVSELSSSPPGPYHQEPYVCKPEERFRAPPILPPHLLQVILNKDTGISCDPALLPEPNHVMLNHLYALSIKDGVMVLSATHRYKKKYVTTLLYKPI
T1 sequence (P54619 whole entry partner): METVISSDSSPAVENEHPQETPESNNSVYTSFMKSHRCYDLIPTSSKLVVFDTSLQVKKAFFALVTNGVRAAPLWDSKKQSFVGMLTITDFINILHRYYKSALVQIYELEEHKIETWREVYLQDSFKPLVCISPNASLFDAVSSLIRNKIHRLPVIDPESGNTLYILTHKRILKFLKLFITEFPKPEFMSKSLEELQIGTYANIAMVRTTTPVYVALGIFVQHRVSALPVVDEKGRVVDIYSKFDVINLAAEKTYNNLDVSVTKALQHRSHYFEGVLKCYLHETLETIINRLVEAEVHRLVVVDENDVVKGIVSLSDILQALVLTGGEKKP

For `O=C1Nc2ccccc2C1(F)Cc1ccc(-c2ccccc2)o1` (stereo not shown) [Compound 8c, 3-fluoro-3-((5-phenylfuran-2-yl)methyl)indolin-2-one], the “ACC phosphorylation (pACC/ACC)” value (AMPK) was “augmented pACC”, the “Thr172 phosphorylation of AMPK (pAMPK/AMPK)” value (AMPK; compared to controls) was “significant increase in Thr172 phosphorylation of AMPK” and the liver morphology [1] was “Liver morphology was normal”. The “mice weight or animal welfare” value [1] was “No effect on mice weight or animal welfare”.
